Measurements from BindingDB's records for patent US20250179094 (Medinno Pharmaceutical Technology (Zhuhai) Co., 2025).

Target: T1, TGF-beta receptor type-1 (Homo sapiens, UniProt P36897)
T1 sequence (P36897 whole entry): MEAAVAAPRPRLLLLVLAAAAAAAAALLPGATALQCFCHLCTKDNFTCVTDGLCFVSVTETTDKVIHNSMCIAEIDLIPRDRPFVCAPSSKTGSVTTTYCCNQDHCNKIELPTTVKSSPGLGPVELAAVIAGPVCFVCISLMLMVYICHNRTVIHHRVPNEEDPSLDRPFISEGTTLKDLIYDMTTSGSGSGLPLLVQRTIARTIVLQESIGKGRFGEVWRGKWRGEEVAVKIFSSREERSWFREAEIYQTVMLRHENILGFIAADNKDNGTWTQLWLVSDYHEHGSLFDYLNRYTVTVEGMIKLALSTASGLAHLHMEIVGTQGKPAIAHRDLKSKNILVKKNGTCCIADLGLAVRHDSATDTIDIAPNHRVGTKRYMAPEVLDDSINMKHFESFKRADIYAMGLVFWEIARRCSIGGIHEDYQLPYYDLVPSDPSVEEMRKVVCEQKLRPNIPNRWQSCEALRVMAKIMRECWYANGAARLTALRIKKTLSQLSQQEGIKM
Assay: Kinase Activity Assay
Protocol: The principle of the activity assay was that TGFβR1 phosphorylates the substrate TGFβR1tide, consuming ATP in the process. […] The specific experimental steps were as follows. Compounds were diluted 4-fold in DMSO in a dilution plate, with the final starting concentration of the compounds being 10 μM, across 10 concentration gradient points. The compounds were then further diluted 50-fold into the kinase reaction buffer and incubated on a shaker for 20 minutes. Kinase was formulated with an enzyme reaction buffer. 2 μl kinase was added to each well of the reaction plate. 1 μl of the compound diluted in buffer was added to each well, and then the plate was sealed with a sealing membrane and centrifuged at 1000 g for 30 seconds, leaving it at room temperature for 10 minutes. Solutions of TGFβR1tide and ATP were prepared with the kinase reaction buffer, and 2 μL of the TGFβR1tide/ATP solution was added to the reaction plate. The plate was sealed with a sealing film and centrifuged at 1000 g for 30 seconds. It was allowed to react at room temperature for 60 minutes. Subsequently, 4 μL of ADP-Glo was transferred to a 384-well reaction plate and centrifuged at 1000 rpm/min for 1 minute, followed by incubation at 25° C. for 40 minutes. Then, 8 μL of Detection solution was transferred to the 384-well reaction plate and centrifuged at 1000 rpm/min for 1 minute, after which it was incubated at 25° C. for 40 minutes. The RLU (Relative Luminescence Unit) signal was read using a BMG microplate reader, which was used to characterize the degree of kinase activity.

SMILES	IC50 [nM]
Cc1cccc(-c2nc3n(c2-c2ccnc(-c4nc5c([nH]4)CN(C(=O)N4CC[C@@H](N(C)C)C4)C5)c2)CCC3)n1 [US20250179094, Compound 34]	1.9
Cc1cccc(-c2nn(C(C)C)cc2-c2ccnc(-c3nc4c([nH]3)CN(C(=O)N3CCN(C)CC3)C4)c2)n1 [US20250179094, Compound 22]	7.5
Cc1cccc(-c2nc[nH]c2-c2ccnc(-c3nc4c([nH]3)CN(C(=O)N3CCCC3)C4)c2)n1 [US20250179094, Compound 6]	22
Cc1cccc(-c2nn(C)cc2-c2ccnc(-c3nc4c([nH]3)CN(C(=O)N3CCN(C)CC3)C4)c2)n1 [US20250179094, Compound 37]	6.5
Cc1cccc(-c2nc3n(c2-c2ccnc(-c4nc5c([nH]4)CN(C(=O)N4CC[C@@H](O)C4)C5)c2)CCC3)n1 [US20250179094, Compound 15]	16
Cc1cccc(-c2nc[nH]c2-c2ccnc(-c3nc4c([nH]3)CN(C(=O)N3CCN(C)CC3)C4)c2)n1 [US20250179094, Compound 7]	1.1
Cc1cccc(-c2nc3n(c2-c2ccnc(-c4nc5c([nH]4)CN(C(=O)N4CCOCC4)C5)c2)CCC3)n1 [US20250179094, Compound 33]	1.7
Cc1cccc(-c2nc3n(c2-c2ccnc(-c4nc5c([nH]4)CN(C(=O)N4CCC(O)CC4)C5)c2)CCC3)n1 [US20250179094, Compound 27]	4.3
Cc1cccc(-c2nn(Cc3ccccc3)cc2-c2ccnc(-c3nc4c([nH]3)CN(C(=O)N3CCN(C)CC3)C4)c2)n1 [US20250179094, Compound 23]	0.9

The remaining lines, values ahead:

IC50 [nM]	SMILES
9.9	Cc1cccc(-c2nn(Cc3cccc(F)c3)cc2-c2ccnc(-c3nc4c([nH]3)CN(C(=O)C3CC(O)C3)C4)c2)n1 (centres undefined) [US20250179094, Compound 57]
1.6	Cc1cccc(-c2nn(Cc3cccc(F)c3)cc2-c2ccnc(-c3nc4c([nH]3)CN(C(=O)N3CCN(C)CC3)C4)c2)n1 [US20250179094, Compound 40]
2.7	Cc1cccc(-c2nn(CC3CC3)cc2-c2ccnc(-c3nc4c([nH]3)CN(C(=O)N3CCN(C)CC3)C4)c2)n1 [US20250179094, Compound 43]
4.4	CCn1cc(-c2ccnc(-c3nc4c([nH]3)CN(C(=O)N3CCN(C)CC3)C4)c2)c(-c2cccc(C)n2)n1 [US20250179094, Compound 38]
23	Cc1cccc(-c2nn(Cc3ccccc3)cc2-c2ccnc(-c3nc4c([nH]3)CN(C(=O)C3CC(O)C3)C4)c2)n1 (centres undefined) [US20250179094, Compound 56]
6.9	Cc1cccc(-c2nc3n(c2-c2ccnc(-c4nc5c([nH]4)CN(C(=O)N4CCN(C)CC4)C5)c2)CCOC3)n1 [US20250179094, Compound 61]
2.3	Cc1cccc(-c2nn3c(c2-c2ccnc(-c4nc5c([nH]4)CN(C(=O)N4CCC(O)CC4)C5)c2)CCC3)n1 [US20250179094, Compound 70]
0.9	Cc1cccc(-c2nn3c(c2-c2ccnc(-c4nc5c([nH]4)CN(C(=O)N4CCN(C)CC4)C5)c2)CCC3)n1 [US20250179094, Compound 62]
2	Cc1cccc(-c2nn3c(c2-c2ccnc(-c4nc5c([nH]4)CN(C(=O)N4CCCC4)C5)c2)CCC3)n1 [US20250179094, Compound 72]
0.67	Cc1cccc(-c2nn3c(c2-c2ccnc(-c4nc5c([nH]4)CN(C(=O)N4CCOCC4)C5)c2)CCC3)n1 [US20250179094, Compound 71]
